According to patent US20250186408A1, “TREATMENT OF PHARMACORESISTANT EPILEPSY” (Katholieke Universiteit Leuven, priority 2021, published 2025):
“Also recorded” adds a separate entry of the source.

Experiments:
[1] = tested on: EKP-induced seizure behaviour in zebrafish larvae; assay: Zebrafish ethyl ketopentanoate (EKP) seizure model, behavioural analysis; type: in vivo, zebrafish (Danio rerio); conditions: for active in the behavioural assay / tolerated in the behavioural assay: 5 dpf larvae, 2 h; for activity against EKP-induced drug-resistant seizures (behavioural) / reduction in EKP-induced drug-resistant seizures (non-significant): maximum tolerated concentration, 7-day-old larvae (FIG. 3); for activity against EKP-induced drug-resistant seizures (behavioural) / reduction in EKP-induced drug-resistant seizures (non-significant) / reduction in EKP-induced seizure behaviour (non-significant): 2 h incubation; for reduction in EKP-induced seizure behaviour (non-significant): 5-day-old larvae; for antiseizure activity at the behavioural level (in words): FIG. 5 and FIG. 3
Protocol: Experiments were performed as described in (16). In brief, a single 5 or 7 dpf larva was placed in each well of a 96-well plate and treated with either VHC (embryo medium with 1% DMSO) or test compound (dissolved in embryo medium, final solvent concentration of 1% DMSO) in a 100 μL volume. Larvae were incubated in the dark for 2 h at 28° C., whereafter 100 μL of either VHC (embryo medium with 1% DMSO) or 600 μM EKP (dissolved in embryo medium, final solvent concentration of 1% DMSO, 300 μM working concentration) was added to each well. Next, within 5 min the 96-well plate was placed in an automated tracking device (ZebraBox Viewpoint, France) and larval behaviour was video recorded for 30 min. The complete procedure was performed in dark conditions using infrared light. Total locomotor activity was recorded by ZebraLab software (Viewpoint, France) and expressed in actinteg units, which is the sum of pixel changes detected during the defined time interval (5 min). Larval behaviour was depicted as mean actinteg units per 5 min during the 30 min recording period and over consecutive time intervals. Data are pooled from independent experiments and expressed as mean±SD.
In our search for novel antiseizure compounds with the potential to treat drug-resistant seizures, the zebrafish EKP seizure model was used for hit identification and as critical gate-keeper for further investigation in the pharmacoresistant mouse 6-Hz (44 mA) psychomotor seizure model. An automated behavioural analysis was done of 7-day-old zebrafish larvae using video tracking (ViewPoint, France).
The compounds were tested in 5-day-old zebrafish larvae at 2 and/or 10 μM, depending on their tolerability, after 2 h incubation time. […] Among the antiseizure hits were compounds from 10 out of 11 classes tested, namely, propynones, propynals, propynols, propenones, amides, quinolinones, naphthyridinones, thiopyranoxides, pyrazolopyridines and indazoles.

[2] = tested on: EKP-induced epileptiform discharges in zebrafish larvae; assay: Zebrafish EKP seizure model, electrophysiology (non-invasive LFP recordings, PSD analysis); type: in vivo, zebrafish (Danio rerio); conditions: 7 dpf larvae; for efficacy against EKP-induced epileptiform discharges 2 μM / efficacy against EKP-induced epileptiform discharges 10 μM: 22 h incubation, mean, normalized PSD 20-90 Hz; for effect on EKP-induced elevated PSD (in words): 22 h
Protocol: Non-invasive LFP recordings were measured from the midbrain (optic tectum) of 7 dpf zebrafish larvae pre-incubated with VHC only, EKP only, or compound and EKP. […] These steps occurred at 28° C., while further manipulation and electrophysiological recordings occurred at room temperature (±21° C.) and were performed as described before (16, 27). Each recording lasted 600 seconds.
A power spectral density (PSD) analysis of the recordings was performed using MatLab R2019 software (MATrix LABoratory, USA) as described in (26). The PSD estimate of each LFP recording was summed over each 10 Hz frequency band, ranging from 0 to 160 Hz. Next, the PSD estimates were normalized against the VHC control. Data are expressed as mean±SEM PSD per larva and per condition over the 20-90 Hz region. Outliers were identified via the ROUT test (Q=1%).
PSD analysis assumes that the epileptiform activity manifests as a high-power oscillation at certain frequencies (26). Thus, if epileptic activity occurs often during the recording an elevated PSD estimate should be found at the corresponding frequency band(s) (26).

male NMRI mice = assay: Mouse 6-Hz (44 mA) psychomotor seizure model; type: in vivo; conditions: for mean seizure duration / dose-response relationship (in words): 30 min before stimulation; for dose-response relationship (in words): i.p.
Protocol: The antiseizure activity of compounds was investigated in the mouse 6-Hz (44 mA) psychomotor seizure model as described before (27). […] Seizure behaviour was video recorded and seizure durations were determined by blinded video analysis by experienced researchers, familiar with the different seizure characteristics. Data are expressed as mean±SD.
The 6-Hz 44 mA model is an acute model of pharmacoresistant focal impaired awareness seizures, previously referred to as complex partial or psychomotor seizures that are induced by a low frequency, long duration corneal electrical stimulation (6 Hz, 0.2 ms rectangular pulse width, 3 s duration, 44 mA). Seizures are typically characterized by a clonic phase and stereotypical automatic behaviours like stun, forelimb clonus, Straub tail and vibrissae twitching.

With `Nc1ncccc1C(=O)C#Cc1ccc(Cl)c(Cl)c1` [Compound 1.13, 1-(2-aminopyridin-3-yl)-3-(3,4-dichlorophenyl)prop-2-yn-1-one] the “active in the behavioural assay” value [1] was “active” and the “tolerated in the behavioural assay” value [1] was “tolerated”.
`O=C(C#Cc1cccc(Cl)c1)c1cccnc1Cl` [Compound 1.20, 3-(3-chlorophenyl)-1-(2-chloropyridin-3-yl)prop-2-yn-1-one] was tested, and the “active in the behavioural assay” value [1] was “active” and the “tolerated in the behavioural assay” value [1] was “tolerated”.
For `O=C(C#Cc1cccc(Cl)c1)c1cccnc1N1CCOCC1` [Compound 1.21, 3-(3-chlorophenyl)-1-(2-morpholinopyridin-3-yl)prop-2-yn-1-one], the “active in the behavioural assay” value [1] was “active” and the “tolerated in the behavioural assay” value [1] was “tolerated”.
In the case of `CC(C)(C)c1ccc(C#CC(=O)c2cccnc2N)cc1` [Compound 1.22, 1-(2-aminopyridin-3-yl)-3-(4-(tert-butyl)phenyl)prop-2-yn-1-one], the “efficacy against EKP-induced epileptiform discharges 2 μM” value ([2]; 2 μM) is reported as 45% and the “activity against EKP-induced drug-resistant seizures (behavioural)” value (from here on “activity … (behavioural)”) [1] is reported as “active; also recorded: most effective”.
In the case of `CCCCCCC#CC(=O)c1cccnc1N` [Compound 1.23, 1-(2-aminopyridin-3-yl)non-2-yn-1-one], the “efficacy against EKP-induced epileptiform discharges 2 μM” value ([2]; 2 μM) is reported as 31%, the “efficacy against EKP-induced epileptiform discharges 10 μM” value ([2]; 10 μM) is reported as −25% and the “reduction in EKP-induced drug-resistant seizures (non-significant)” value [1] is reported as “approximately 20%”.
In the case of `O=C(C#Cc1ccc(Cl)cc1)c1ccccc1` [Compound 1.31, 3-(4-chlorophenyl)-1-phenylprop-2-yn-1-one], the “active in the behavioural assay” value [1] is reported as “active” and the “tolerated in the behavioural assay” value [1] is reported as “tolerated”.
In the case of `O=C(C#Cc1cccc(F)c1)c1ccccc1` [Compound 1.35, 3-(3-fluorophenyl)-1-phenylprop-2-yn-1-one], the “active in the behavioural assay” value [1] is reported as “active” and the “tolerated in the behavioural assay” value [1] is reported as “tolerated”.
For `CC(C)(C)c1ccc(C#CCc2ccccc2)cc1` [Compound 4.1, 1-(tert-butyl)-4-(3-phenylprop-1-yn-1-yl)benzene], the “efficacy against EKP-induced epileptiform discharges 2 μM” value ([2]; 2 μM) was 38%, the “reduction in EKP-induced seizure behaviour (non-significant)” value ([1]; 2 μM) was “approximately 23%” and the “reduction in EKP-induced seizure behaviour (non-significant)” value ([1]; 10 μM) was ~19%. The “antiseizure activity at the behavioural level (in words)” value [1] was “did not show significant activity”.
`Nc1ncccc1C(=O)N1CCN(c2cccc(Cl)c2)CC1` [Compound 6.1, (2-aminopyridin-3-yl)(4-(3-chlorophenyl)piperazin-1-yl)methanone] was tested, and the “efficacy against EKP-induced epileptiform discharges 2 μM” value ([2]; 2 μM) was 61%, the “efficacy against EKP-induced epileptiform discharges 10 μM” value ([2]; 10 μM) was 10% and the mean seizure duration (male NMRI mice; 30 mg/kg i.p.) was 15.5 s. It also gave a mean seizure duration (male NMRI mice; 100 mg/kg i.p.) of 4.3 s, a mean seizure duration (male NMRI mice; 300 mg/kg i.p.) of 0.5 s and a mean seizure duration (male NMRI mice; 600 mg/kg i.p.) of 0.5 s. For the same molecule, the “dose-response relationship (in words)” value (male NMRI mice) was “displayed a dose-response relationship”.
`CC(C)(C)c1ccc(-c2cc(=O)c3ccccc3[nH]2)cc1` [Compound 7.1, 2-(4-(tert-butyl)phenyl)quinolin-4(1H)-one] was tested, and the “effect on EKP-induced elevated PSD (in words)” value ([2]; 2 μM) was “significantly elevated the PSD”, the “efficacy against EKP-induced epileptiform discharges 2 μM” value ([2]; 2 μM) was −118% and the “effect on EKP-induced elevated PSD (in words)” value ([2]; 10 μM) was “significantly elevated the PSD”. The “efficacy against EKP-induced epileptiform discharges 10 μM” value ([2]; 10 μM) was −217%, the “antiseizure activity at the behavioural level (in words)” value [1] was “significant antiseizure activity” and the “activity … (behavioural)” value [1] was “active”.
In the case of `CC(C)(C)c1ccc(-c2cc(=O)c3cccnc3[nH]2)cc1` [Compound 8.1, 2-(4-(tert-butyl)phenyl)-1,8-naphthyridin-4(1H)-one], the “efficacy against EKP-induced epileptiform discharges 2 μM” value ([2]; 2 μM) is reported as 57%, the “efficacy against EKP-induced epileptiform discharges 10 μM” value ([2]; 10 μM) is reported as −117% and the “activity … (behavioural)” value [1] is reported as “active”. It also gave a mean seizure duration (male NMRI mice; 30 mg/kg i.p.) of 12.5 s, a mean seizure duration (male NMRI mice; 100 mg/kg i.p.) of 9.7 s and a mean seizure duration (male NMRI mice; 300 mg/kg i.p.) of 2.8 s. The mean seizure duration (male NMRI mice; 600 mg/kg i.p.) was 0 s and the “dose-response relationship (in words)” value (male NMRI mice) was “displayed a dose-response relationship”.
In the case of `COc1ccc(C(=O)C#Cc2ccc(C)cc2)cc1` [I.1, 1-(4-methoxyphenyl)-3-(p-tolyl)prop-2-yn-1-one], the “activity … (behavioural)” value [1] is reported as “active”.
`Cc1ccc(C#CC(=O)c2ccc([N+](=O)[O-])cc2)cc1` [I.2, 1-(4-nitrophenyl)-3-(p-tolyl)prop-2-yn-1-one] was tested, and the “activity … (behavioural)” value [1] was “active”.
`CC(C)(C)c1ccc(C#CC(=O)c2ccc(N)cc2)cc1` [I.4, 1-(4-aminophenyl)-3-(4-(tert-butyl)phenyl)prop-2-yn-1-one] was tested, and the “activity … (behavioural)” value [1] was “active”.
`CC(C)(C)c1ccc(C#CC(=O)c2ccccc2N)cc1` [I.5, 1-(2-aminophenyl)-3-(4-(tert-butyl)phenyl)prop-2-yn-1-one] was tested, and the “activity … (behavioural)” value [1] was “active”.
With `CCCCCCC#CC(=O)c1ccccc1N` [I.6, 1-(2-aminophenyl)non-2-yn-1-one] the “reduction in EKP-induced drug-resistant seizures (non-significant)” value [1] was “approximately 20%”.
In the case of `CCCCCCC#CC(=O)c1ccc(C(=O)OCC)cc1` [I.7, ethyl 4-(non-2-ynoyl)benzoate], the “reduction in EKP-induced drug-resistant seizures (non-significant)” value [1] is reported as “approximately 20%”.
For `CC(C)(C)c1ccc(C#CC(=O)c2ccsc2)cc1` [I.8, 3-(4-(tert-butyl)phenyl)-1-(thiophen-3-yl)prop-2-yn-1-one], the “activity … (behavioural)” value [1] was “active”.
For `CCCCCCC#CC(=O)c1ccsc1` [I.9, 1-(thiophen-3-yl)non-2-yn-1-one], the “activity … (behavioural)” value [1] was “active”.
`O=C(C#CC1CC1)c1ccsc1` [I.10, 3-cyclopropyl-1-(thiophen-3-yl)prop-2-yn-1-one] was tested, and the “activity … (behavioural)” value [1] was “active”.
With `Cc1ccncc1C(=O)C#Cc1ccc(C(C)(C)C)cc1` [I.11, 3-(4-(tert-butyl)phenyl)-1-(4-methylpyridin-3-yl)prop-2-yn-1-one] the “activity … (behavioural)” value [1] was “active”.
In the case of `CNc1ccccc1C(=O)C#Cc1ccc(C(C)(C)C)cc1` [I.14, 3-(4-(tert-butyl)phenyl)-1-(2-(methylamino)phenyl)prop-2-yn-1-one], the “activity … (behavioural)” value [1] is reported as “active”.
In the case of `O=c1cc(-c2ccccc2)[nH]c2ccccc12` [III.1, 2-phenylquinolin-4(1H)-one], the “reduction in EKP-induced drug-resistant seizures (non-significant)” value [1] is reported as “approximately 20%”.
`CCCC(CCC)C(=O)[O-].[Na+]` [valproate, sodium valproate, reference compound] was tested, and the “protection against the electrically induced seizures (in words)” value (male NMRI mice; 300 mg/kg i.p., positive control) was “completely protected”.
